Values joined by “and” are separate entries in the source; they are usually repeats but may differ in a detail not shown here. Equal values may be shown once. After the bases stand the sugars from the 5' end (letter, count) and the backbone: PS all phosphorothioate, else s phosphorothioate and o phosphodiester by linkage. Methylation of C is not given here. e = 2'-O-(2-methoxyethyl) (MOE); d = 2'-deoxy (DNA)

The series has as its target DGAT2. The following applies: ASO.

As for “GCTTACCAACAGTGGTGATG (sugars e5 d10 e5, PS)”, the target mRNA inhibition (HepG2, 0.12 µM) is 21%. As for “GCTTATCCTTGAGGGTCTCA (sugars e5 d10 e5, PS)”, the target mRNA inhibition (HepG2, 2.5 µM) is 82% and 77% and 88%; the target mRNA inhibition (HepG2, 10 µM) is 94% and 89% and 95%.

Turning to “GCTTCAATAAATACCTTATC (sugars e5 d10 e5, PS)”, the target mRNA inhibition is 84% and 74% (HepG2, 2.5 µM); 92% and 97% (HepG2, 10 µM).

Take “GCTTCTTGGGCATCTGCTAG (sugars e5 d10 e5, PS)”: the target mRNA inhibition was found to be 74% (HepG2, 2.5 µM) and 82% (HepG2, 10 µM).

For the sequence “GGACACCTGGAGCTGCGGCC (sugars e5 d10 e5, PS)”, the target mRNA inhibition (HepG2, 2.5 µM) was determined as 35% and the target mRNA inhibition (HepG2, 10 µM) turned out to be 73%. The corresponding values for “GGACAGAGGTTCAACATCCA (sugars e5 d10 e5, PS)” are 58% and 89%. As to “GGAGTTCTCGAATATCCCTA (sugars e5 d10 e5, PS)”, the target mRNA inhibition is, setting by setting: (HepG2, 2.5 µM) 74% and 82% and 85%; (HepG2, 10 µM) 90% and 94%.

With “GGATGCTGGATCCAGTGCCC (sugars e5 d10 e5, PS)”, the target mRNA inhibition (HepG2, 0.12 µM) came out at 32%. “GGCAGAGAAACTGGTCCTGC (sugars e5 d10 e5, PS)”: the target mRNA inhibition (HepG2, 2.5 µM) turned out to be 55% and the target mRNA inhibition (HepG2, 10 µM) worked out at 81%. For the setting “HepG2, 0.12 µM”, “GGCAGGGCTTAGAATGGCTA (sugars e5 d10 e5, PS)” yielded a target mRNA inhibition of 48%.

Take “GGCATGGAGCTCAGAGACTC (sugars e5 d10 e5, PS)”: the target mRNA inhibition reads like this: (HepG2, 0.12 µM) 77%; (HepG2, 2.5 µM) 25%; (HepG2, 10 µM) 76%; (HepG2, 20 µM) 49%. On to “GGCCAAGGCTGAGTCTGTGC (sugars e5 d10 e5, PS)”, for which the target mRNA inhibition (HepG2, 0.12 µM) worked out at 17%. Consider “GGCCCAACCCCCTCAGGAAG (sugars e5 d10 e5, PS)”, for which the target mRNA inhibition (HepG2, 0.12 µM) worked out at 19%. Take “GGCCTTGGCTGCAAGCTCTG (sugars e5 d10 e5, PS)”: the target mRNA inhibition is, setting by setting: (HepG2, 2.5 µM) 52%; (HepG2, 10 µM) 67%. As to “GGCTGTCAGAGGCTACTGGC (sugars e5 d10 e5, PS)”, the target mRNA inhibition was 74% (HepG2, 2.5 µM) and 63% (HepG2, 10 µM).

“GGCTTCACCGTCCCACAGCA (sugars e5 d10 e5, PS)” showed a target mRNA inhibition (HepG2, 0.12 µM) of 39%. The same measure, in the same setting: the result for “GGGCACCAGCCCCCAGGTGT (sugars e5 d10 e5, PS)” reads 34%; that for “GGGCAGTCCTTTCCCCTGCA (sugars e5 d10 e5, PS)”, 37%. The same measure, in the same setting: the same measure for “GGGCGAAACCAATGTATTTC (sugars e5 d10 e5, PS)”: 24%.

On to “GGGCTAATACCTACCTCACC (sugars e5 d10 e5, PS)”, for which the target mRNA inhibition stood at 53% (HepG2, 2.5 µM) and 74% (HepG2, 10 µM).

On to “GGGTGTGTTCCAGTCAAACA (sugars e5 d10 e5, PS)”, for which, under “HepG2, 0.12 µM”, the target mRNA inhibition amounted to 6%.

Under “HepG2, 0.12 µM”, “GGTAAGGCCGTATGCCTGGG (sugars e3 d14 e3, PS)” displayed a target mRNA inhibition of 51%. Regarding “GGTAAGTCCTGATGATCCCC (sugars e5 d10 e5, PS)”, the target mRNA inhibition is 86% and 74% (HepG2, 2.5 µM); 94% and 95% (HepG2, 10 µM). For the setting “HepG2, 0.12 µM”, “GGTATCCAAAGATATAGTTC (sugars e5 d10 e5, PS)” displayed a target mRNA inhibition of 43%.

“GGTCAGCAGGTTGTGTGTCT (sugars e3 d14 e3, PS)” gave a target mRNA inhibition (HepG2, 0.12 µM) of 57%.

Take “GGTCTGGGAACAGCAGC (sugars e3 d10 e4, PS)”: the target mRNA inhibition (HepG2, 2.5 µM) is 72% and 76%; the target mRNA inhibition (HepG2, 10 µM) is 79% and 82%.

For the sequence “GGTGACTGCATTCTTGCCAG (sugars e5 d10 e5, PS)”, the target mRNA inhibition (HepG2, 0.12 µM) came out at 25%.

Consider “GGTGGTTGCAATGTTGCCAT (sugars e5 d10 e5, PS)”, for which the target mRNA inhibition is 90% and 76% (HepG2, 2.5 µM); 93% and 90% (HepG2, 10 µM). On to “GGTTGCAATGTTGCCATCAT (sugars e5 d10 e5, PS)”, for which the target mRNA inhibition by setting is: (HepG2, 2.5 µM) 91% and 83%; (HepG2, 10 µM) 93% and 91%. On to “GGTTGTGTGTCTTCACCAGC (sugars e2 d13 e5, PS)”, for which the target mRNA inhibition (HepG2, 0.12 µM) is 68%. As to “GTACTCCCTCAACACAGGCA (sugars e5 d10 e5, PS)”, the target mRNA inhibition (HepG2, 0.12 µM) was found to be 72%.

Regarding “GTCACCTCTTCCAGGAAGAC (sugars e5 d10 e5, PS)”, the target mRNA inhibition reads like this: (HepG2, 2.5 µM) 83% and 73% and 76%; (HepG2, 10 µM) 92% and 88%. With “GTGAAGTTCTATCCCTTGGC (sugars e5 d10 e5, PS)”, the target mRNA inhibition was 58% and 71% (HepG2, 2.5 µM); 91% and 93% (HepG2, 10 µM). With “GTGACCTTGGGATAGTCCCT (sugars e5 d10 e5, PS)”, the target mRNA inhibition was 76% and 69% (HepG2, 2.5 µM); 92% and 89% (HepG2, 10 µM). Turning to “GTGCTCTGTGGGCTCCTCCA (sugars e5 d10 e5, PS)”, the target mRNA inhibition amounted to 69% (HepG2, 2.5 µM) and 83% (HepG2, 10 µM).

(Values after the OligoGym collection.)
